Experimental findings from patent US6852503B1, “Compositions and methods for utilizing mixed substrate solutions of luminols and dioxetanes” (Pierce Biotechnology, Inc., priority 2001, dated 2005) are described below.

One series has as its target alkaline phosphatase (Bos taurus, UniProt P19111). The series is described as follows: Effect of peroxidase enhancers on observed alkaline phosphatase activity in dioxetane formulation containing PBTBQ. It counts as biochemical. The settings on record: for Response, Percent: 33.3 pg alkaline phosphatase, 30 minutes, net signal relative to control solution (CDP-Star plus Nitroblock II) set to 100%; for enhancement of the observed phosphatase activity: relative to control solution. As to the method: (§1) A variety of known enhancers of peroxidase activity were tested for their effect on the observed alkaline phosphatase activity in a dioxetane formulation containing the PBTBQ alkaline phosphatase enhancement agent. […] 10 μl of TBS served as a background control. 40 mM stock solutions as ws-PT, ws-PT-N-C4-S-C2Cl, and ws-PT Plus (CP-Br) were prepared in water. A 50 mM solution of DMAP was prepared in water. A 20 mM ws-PT Plus (MPA Cl) was prepared in water. 40 mM solutions of MPT and CPPT were prepared in methanol. (See Table 3 for acronym identification of these peroxidase enhancers, some of which are substantially water-soluble(ws).) The control solution was prepared by mixing 2.85 ml of CDP-Star RTU (Tropix Product No. MS100R) with 0.15 ml of NitroBlock II (Tropix Product No. LNX200). For the test solutions, 112 μl of the peroxidase enhancer stock solutions were added to 3 ml of the control solution in the case of the ws-PT, MPT, ws-PT-NC4S, ws-PT-Plus (CP-Br), or CPPT; for the ws-PT-Plus (MPS-C) 224 μl of the stock was added to 3 ml of the control solution; for the DMAP, 150 μl of the stock was added to 3 ml of the control solution; for the test solution containing DMAP and ws-PT, 150 μl of the DMAP stock and 112 μl of the ws-PT stock was added to 3 ml of the control solution.
To the wells of the microplate containing the alkaline phosphatase aliquots, the control and test formulations were added at 100 μl per well, mixed for approximately one minute, and allowed to react for 30 minutes at which time the chemiluminescent signal was measured on a Berthold EGG Luminometer using a 0.1 second integration time. Table 3 illustrates the relative signal intensities obtained using the response from the control solution set to 100%. The net signal of each solution (background subtracted) was used for these calculations. […] Consequently, the relative response factors for alkaline phosphatase and peroxidase activity to each other in the present invention can be modulated by the choice of the peroxidase enhancer used in the substrate solution formulation of this invention.

A short description of series [1]: Visual appearance (flocculation) of test solutions. It counts as physicochemical. The settings on record: enhancer stock added to CDP-Star RTU/NitroBlock II control solution. As to the method: as §1

alkaline phosphatase, sequence (P19111 20-506 limits assumed): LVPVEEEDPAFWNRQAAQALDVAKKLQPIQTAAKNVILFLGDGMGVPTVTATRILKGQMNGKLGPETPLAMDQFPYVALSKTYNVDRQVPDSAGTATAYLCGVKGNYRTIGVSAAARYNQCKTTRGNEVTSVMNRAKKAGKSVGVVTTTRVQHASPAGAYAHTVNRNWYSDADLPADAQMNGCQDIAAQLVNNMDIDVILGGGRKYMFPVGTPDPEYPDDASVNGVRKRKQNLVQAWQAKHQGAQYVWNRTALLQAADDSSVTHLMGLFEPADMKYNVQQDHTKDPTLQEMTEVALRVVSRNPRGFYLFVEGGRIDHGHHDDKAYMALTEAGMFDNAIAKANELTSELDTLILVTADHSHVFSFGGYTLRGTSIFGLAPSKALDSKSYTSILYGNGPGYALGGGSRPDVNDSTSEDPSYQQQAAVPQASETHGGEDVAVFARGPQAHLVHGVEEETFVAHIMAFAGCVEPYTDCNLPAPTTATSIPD

As to `C[N+](C)(C)CCCN1c2ccccc2Sc2ccccc21.[Cl-]` [ws-PT Plus (MPA^+Cl^−), Trimethyl-(3-phenothiazin-10-yl-propyl)ammonium chloride], the “Response, Percent” value on alkaline phosphatase worked out at 70%.

`O=C(O)CCCN1c2ccccc2Sc2ccccc21` [CPPT, 4-(phenothiazin-10-yl)butanoic acid]: the “Response, Percent” value at alkaline phosphatase is recorded as 104%.

As to `O=S(=O)([O-])CCCN1c2ccccc2Sc2ccccc21.[Na+]` [ws-PT, Sodium (3-phenothiazine-10-yl)-propane-1-sulfonate], in series [1], the “appearance of test solution” value was “visible flocculation”. On alkaline phosphatase, the “Response, Percent” value is 207% and the “enhancement of the observed phosphatase activity” value (“enhancement” for short) is recorded as “significant enhancement”.

As to `CN1c2ccccc2Sc2ccccc21` [MPT, 10-methyl-10H-phenothiazine], the “appearance of test solution” value in series [1] was “visible flocculation”. On alkaline phosphatase, the “Response, Percent” value is given as 198% and the “enhancement” value is “significant enhancement”.

Consider `C[N+](C)(C)CCCN1c2ccccc2Sc2ccc(Cl)cc21.[Br-]` [ws-PT Plus (CP—Br^−), [3-(2-chlorophenothiazin-10-yl)-propyl]trimethyl-ammonium bromide], for which the “Response, Percent” value at alkaline phosphatase is 85%.

On to `O=S(=O)([O-])CCCCN1c2ccccc2Sc2ccc(Cl)cc21.[Na+]` [ws-PT—N—C4S—C2—Cl, Sodium 4-(2-chlorophenothiazin-10-yl)butane-1-sulfonate], for which, on alkaline phosphatase, the “Response, Percent” value is 218% and the “enhancement” value is “significant enhancement”.

Regarding `CNC.c1ccncc1` [DMAP, Dimethylamine pyridine], at alkaline phosphatase, the “Response, Percent” value was 99%.
